From PubChem BioAssay AID179 (DTP/NCI, 2004) come the findings set out here.

“And” between values parts separate entries of the source, which are not always exact repeats. Equal values may be shown once. The source made the active and inactive calls.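 Rule for the calls: active = compounds giving half or more protection of infected cells from virus-caused growth loss, again on retest; inactive = the rest.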 Where a SMILES comes first, the peptide text is derived from it.

This experiment has as its system CEM cells HIV-1 protection, formazan growth assay. The experiment in a line: NCI AIDS Antiviral Assay. Conditions: for IC50: measured here: growth of uninfected CEM cells. Summed up: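 Steps: treat uninfected and HIV-1-infected human CEM cells at five drug levels; quantify growth by soluble formazan; retest any compound reaching 50% protection; classify actives from the retest.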

In the case of `COc1ccc(N2C(=O)C3c4[nH]c5ccc(C)cc5c4C4CCC(C)CC4C3C2=O)cc1` (stereo not given), the EC50 is > 100 µM and the IC50 is > 100 µM.

In the case of `CCOC(=O)CC[P+](c1ccccc1)(c1ccccc1)c1ccccc1`, the EC50 is > 200 µM and the IC50 is 21.4 µM.

For the molecule `CCC(c1ccc(OC)cc1)C1NC(=S)NC1=O` (stereo not given), the EC50 is > 200 µM and the IC50 was 31.6 µM.

Turning to `Cc1ccc(NC(=O)/C(Cl)=C(/Cl)C(=O)O)cc1`, the outcome was inactive.

On to `N#Cc1cc2c(cc1C#N)SCCSCCCSCCS2`, for which the outcome was inactive.

With `N#CSCc1ccc(Cl)cc1`, the EC50 is > 28.2 µM and the IC50 was 16.2 µM.

With `CC(=O)NCCC1CNc2ccccc21` (stereo not given), the EC50 was > 200 µM and the IC50 is > 200 µM.

`CC1CCn2c(=S)[nH]c3cccc(c32)N1` (stereo not given): the 50% effective concentration (EC50) was 42.7 µM and the IC50 was 182 µM.

Turning to `CCc1cc(=O)oc2c3c(cc(OC)c12)O[C@H](C)[C@@H](C)C3=O`, the EC50 was > 200 µM and the IC50 turned out to be 31.6 µM.

Regarding `CC(=O)OCC1OC(Sc2nc(-c3ccc(C)cc3)c(C#N)c(=O)n2C2OC(COC(C)=O)C(OC(C)=O)C(OC(C)=O)C2OC(C)=O)C(OC(C)=O)C(OC(C)=O)C1OC(C)=O` (stereo not given), the EC50 is > 100 µM and 69.2 µM; the IC50 is > 100 µM.

Turning to `Cc1ccc2c(c1)C(C1Cc3c(C)cccc3C1=O)OC2=O` (stereo not given), the EC50 is > 200 µM and the IC50 is > 200 µM.

Regarding `CCCNC(=O)N(CC(C)(C)C)S(=O)(=O)c1ccc(Cl)cc1`, the result was inactive.

Regarding `CSC1=C(C(=O)Nc2ccc(C)cc2)C(N)=NC1=O`, the EC50 was > 100 µM and the IC50 was > 100 µM.

For `Nc1nc([O-])c([I+]c2ccccc2)c(=O)[nH]1`, the EC50 is > 200 µM and the IC50 was > 200 µM.

For the molecule `CCc1ccccc1NNc1cc(=O)[nH]c(=O)[nH]1`, the EC50 was > 200 µM and the IC50 worked out at 27.5 µM.

For the molecule `CC1(C)N([O-])[N+](=O)C1(C)O` (stereo not given), the EC50 was > 200 µM and the half-inhibitory concentration (IC50) is > 200 µM.

On to `CC1CC(C)(C)NC2(CCCC2)N1` (stereo not given), for which the EC50 is > 200 µM and the IC50 was > 200 µM.

Consider `CC1(C)CCC[C@@]2(C)C1CCC1(C)C(CCc3ccoc3)/C(=C/OS(=O)(=O)O)CCC12` (stereo not given in full) (tested in a mixture with another compound), for which the EC50 was > 145 µM and the IC50 is > 145 µM.

For the molecule `NC1=C(c2nc(-c3ccccc3)cs2)C(c2ccc(Br)cc2)c2c(c3ccccc3oc2=O)O1` (stereo not given), the EC50 is > 200 µM and the IC50 is > 200 µM.

With `CCCCCCCCCCCCC(=O)CCCCC(=O)O`, the outcome was inactive.

As for `COC1=C(C)C(=O)c2nccc(C)c2C1=O`, the outcome was inactive.

With `CC(C)N1[C@@H]2CCCC[C@H]2N(C(C)C)[P+]1=O`, the EC50 is > 200 µM and the IC50 is > 200 µM.

As to `O=C1C2CSCC1CN(Cc1ccccc1)C2`, the EC50 was > 525 µM and the IC50 is > 525 µM.

Regarding `Nc1ccccc1Sc1ccc(Cl)cc1`, the outcome was inactive.

With `CC1CN=C(N(C)C(=O)Nc2ccc(Cl)cc2)S1` (stereo not given), the outcome was inactive.

Regarding `O=C1CNCCCN2CCN(CCCNCC(=O)Nc3ccc(cc3)S(=O)(=O)c3ccc(cc3)NC(=O)CNCCCN3CCN(CCCNCC(=O)Nc4ccc(cc4)S(=O)(=O)c4ccc(cc4)N1)CC3)CC2`, the EC50 is > 50.1 µM and the IC50 was > 50.1 µM.

`O=C(OCC1OC2OC(c3ccccc3)(n3ccc4c([N+](=O)[O-])ccnc43)OC2C1OC(=O)c1ccccc1)c1ccccc1` (stereo not given): the EC50 was > 200 µM and the IC50 is 145 µM.

Take `CCc1c(C)c2cc3[nH]c(cc4nc(cc5nc(cc1[nH]2)C(C)=C5CCC(=O)OC)C(CCC(=O)OC)=C4C)c(C)c3CC`: the result was inactive.

For the molecule `COc1ccc(Cc2nn(C3OC(COC(C)=O)C(OC(C)=O)C(OC(C)=O)C3OC(C)=O)c(=S)n(-c3ccc(OC)cc3)c2=O)cc1` (stereo not given), the outcome was inactive.

Take `CC(C)CCC[C@@H](C)[C@H]1CC[C@H]2[C@@H]3CC[C@H]4C[C@@H](CCC=C(c5cc(Cl)c(OCc6ccccc6C(=O)O)c(C(=O)O)c5)c5cc(Cl)c(OCc6ccccc6C(=O)O)c(C(=O)O)c5)CC[C@]4(C)[C@H]3CC[C@]12C`: the EC50 is 67.6 µM and the IC50 is > 200 µM.

For the molecule `O=C(CC(NC(=O)C(F)(F)F)C(=O)O)OCc1ccccc1` (stereo not given), the EC50 is > 200 µM and the 50% inhibitory concentration (IC50) was > 200 µM.

In the case of `CC1CC(NN(C)C)=C(C#N)C1(C#N)C#N` (stereo not given), the EC50 was > 200 µM and the IC50 was 11.7 µM.

Take `[N-]=[N+]=Nc1ccc2c(c1)Sc1ccccc1N2CCCCCl`: the EC50 is > 200 µM and the IC50 was 26.9 µM.

With `Brc1ccc(-c2ccc(-c3ccc(-c4ccc(Br)s4)s3)s2)s1`, the EC50 is > 200 µM and the IC50 is > 200 µM.

Turning to `C[N+](C)(C)c1ccc(/C=C2\C=Cc3ccccc32)cc1`, the result was inactive.

Consider `CCCCC1C=Cn2c(=O)oc3c(OC(C)C)c(C)c(O)c1c32` (stereo not given), for which the EC50 was > 200 µM and the IC50 was determined as 2.51 µM.

For the molecule `c1ccc(CC(c2ccccc2)N2CCOCC2)cc1` (stereo not given), the outcome was inactive.

Take `Cc1c(C(=O)C(=O)c2ccccc2)c(C)c(C(=O)C(=O)c2ccccc2)c(C)c1C(=O)C(=O)c1ccccc1`: the EC50 was > 200 µM and the IC50 was > 200 µM.

As to `C=CCNC(=S)N/C=C(\C#N)c1nc2ccccc2s1`, the EC50 is > 200 µM and the IC50 is > 200 µM.

With `O=C(c1ccccc1)c1cc2c([nH]c1=O)CCCCCC2`, the EC50 was > 200 µM and the IC50 is > 200 µM.

For the molecule `CC(C)CC(=O)[O-].CC(C)CC(=O)[O-].N.N.N.N.[Co+3].[O-][Cl+3]([O-])([O-])[O-]`, the result was inactive.

In the case of `CNC(=O)C(C(=O)NC)n1cnc(C(=O)OC)c1O`, the EC50 is > 200 µM and the IC50 is > 200 µM.

With `Cc1cccc(N(CC(=O)O)S(=O)(=O)c2ccccc2)c1`, the outcome was inactive.

In the case of `O=C(Cc1ccccc1)N/N=C(/CCN1CCCC1)CC(c1ccccc1)c1c(O)c2ccccc2oc1=O` (stereo not given), the result was inactive.

With `CC(=O)CC(=O)Nc1ccccc1.CC(=O)CC(=O)Nc1ccccc1.[Cu]`, the EC50 is > 200 µM and the IC50 worked out at 17.4 µM.

For the molecule `Cc1ccc(-c2nc(C)c(C(=O)Nc3ccc(Cl)cc3)s2)cc1`, the EC50 is > 200 µM and the IC50 was > 200 µM.

As to `CN1OC(C#N)(C#N)C(C#N)(C#N)C1c1ccccc1` (stereo not given), the EC50 was > 200 µM and the IC50 is > 200 µM.

Regarding `COc1cc(N=Nc2ccc(C(=O)N(C)C)cc2)c(C)cc1N=Nc1c(O)c2ccccc2[nH]c1=O`, the EC50 is > 200 µM and the IC50 was > 200 µM.

As for `CCOC(=O)/C(C(=O)c1ccc[nH]1)=C1/CCCN1C`, the EC50 was > 200 µM and the IC50 is 129 µM.

Turning to `C[C@H]1c2c(n(C3OC(CO)C(O)C3O)c(=O)[nH]c2=O)O[C@@H]1c1ccccc1` (stereo not given in full), the EC50 was > 200 µM and the IC50 is > 200 µM.

Turning to `NNC(=O)CCc1c[nH]c2ccccc12`, the EC50 is > 1230 µM and the IC50 was 661 µM.

For the molecule `Cc1cccc2c1CC1(Cc3ccccc3C1=O)C2=O` (stereo not given), the EC50 is > 200 µM and the IC50 is > 200 µM.

Turning to `COc1ccc(Nc2nc3c([nH]2)c(=O)n(C)c(=O)n3C)cc1`, the EC50 is > 200 µM and the IC50 was > 200 µM.

For the molecule `O=C(c1ccccc1)n1c(Cc2ccccc2)nc2cc(C34CC5CC(CC(C5)C3)C4)ccc21`, the EC50 is > 100 µM and the IC50 worked out at 16.6 µM.

Take `CCOc1ccccc1NC(=O)C(=O)C(C(=O)c1ccc2ccccc2c1)C1OC(=O)c2ccccc21` (stereo not given): the EC50 was > 72.4 µM and the IC50 came out at 31.6 µM.

For the molecule `O=C1CN(c2ccc(Cl)cc2)C(=O)CN1NCNN1CC(=O)N(c2ccc(Cl)cc2)CC1=O`, the EC50 was > 200 µM and the IC50 was > 200 µM.

On to `S=C1NCCN1C(=S)NC1CCCCC1`, for which the EC50 is 22.4 µM and the IC50 was > 100 µM.

Consider `O=C1C[C@@H]2[C@@H](c3ccccc3)[C@@H]3C(=O)c4ccccc4NC(=O)[C@H]3[C@]2(O)c2ccccc2N1`, for which the EC50 is 26.9 µM and the IC50 is 30.9 µM.

As to `CC(=O)C1C(=O)C(=O)N(c2ccc([N+](=O)[O-])cc2)C1=O` (stereo not given), the EC50 was > 200 µM and the IC50 was > 200 µM.

In the case of `C=CCCCC1(C)CCCCNC1=O` (stereo not given), the EC50 is 186 µM and the IC50 was > 200 µM.

`c1ccc(P2CCc3[nH]c4ccccc4c3C2)cc1` (stereo not given): the EC50 was > 38 µM and the IC50 is > 38 µM.

Turning to `Cn1c(=O)c2c(nc(NCC[N+](C)(C)C)n2C)n(C)c1=O`, the outcome was inactive.

On to `CCC1CN2CCc3cc(OC)c(OC)cc3C2CC1CC1c2cc(OC)c(OC)cc2CCN1C(=O)C(Cc1c[nH]c2ccccc12)NC(=O)OC(C)(C)C` (stereo not given), for which the outcome was inactive.

Turning to `NC(=O)CNC(=O)c1ccccc1SC(=O)OCCCCCl`, the EC50 worked out at 26.3 µM and the IC50 is > 200 µM.

Regarding `N#Cc1c2nc3ccccc3nc2n2ccccc12`, the EC50 is > 40.7 µM and the IC50 is > 40.7 µM.

`O=c1[nH]cnc2c1nnn2CCCCCCCCCCCCn1nnc2c(=O)[nH]cnc21`: the EC50 was > 200 µM and the IC50 came to 24 µM.

On to `CC(O)C(NC(=O)C(CCCCN)NC(=O)C(CC(=O)O)NC(=O)C(N)Cc1ccccc1)C(=O)NC(CO)C(=O)NC(CC(N)=O)C(=O)NC(CO)C(=O)N1CCCC1C(=O)NC(Cc1ccc(O)cc1)C(=O)NC(Cc1cnc[nH]1)C(=O)NC(Cc1ccccc1)C(=O)O` (stereo not given) (H-FDKTSNSPYHF-OH; configuration not given here), for which the EC50 is > 46.8 µM and the IC50 was > 46.8 µM.

Turning to `CCOc1ccc(N=Cc2ccc3ccccc3n2)cc1`, the outcome was inactive.

On to `Nc1ccc2c(c1)C(=O)OC2(C(F)(F)F)C(F)(F)F`, for which the EC50 is > 200 µM and the IC50 is 93.3 µM.

Turning to `O=C1CC2(Cl)CN3c4ccccc4C(=O)CC3(Cl)CN2c2ccccc21` (stereo not given), the EC50 is > 57.5 µM and the IC50 was > 57.5 µM.

Consider `CCOC(=O)c1ccc(N2CCN(c3c(C)nc(N)nc3N)CC2)cc1`, for which the EC50 is > 100 µM and the IC50 was found to be 0.0316 µM.

In general, EC50 refers to the concentration needed to bring the measured effect to its halfway point. One may read the IC50 as the midpoint of a concentration-inhibition curve. Higher therefore signals lower potency.
